Results published in US11135236B2, “Retinoic acid receptor gamma agonists to attenuate anthracycline-induced cardiotoxicity” (Northwestern University, priority 2018, dated 2021).

System: hiPSC-CMs
Assay: RNA-seq gene expression analysis of hiPSC-CMs after doxorubicin
Details: 1 μM doxorubicin, 24 h
Source text: RNA-seq gene expression analysis. […] RNA was extracted using TRI Reagent and Direct-zol RNA microprep kit (both Zymo) including on-column DNase digestion to remove genomic DNA. Samples were quantified using an Agilent 2100 Bioanalyzer and passed QC. Library preparation was done using a TruSeq RNA v2 kit (Illumina) and sequencing with NextSeq 500 instrument (Illumina) by Northwestern's NuSeq core facility, generating ˜40 million single-end 75 bp reads for each sample. Reads were mapped to the GRCh38 reference human genome using Subread software (Liao et al., 2013). Gene expression levels and exon usage were estimated using featureCounts function in the Subread software (Liao et al., 2013). Differential gene expression analysis was done using Deseq2 package (Love et al., 2014) and R (v3.3.3).

In the case of `COc1cccc2c1C(=O)c1c(O)c3c(c(O)c1C2=O)C[C@@](O)(C(=O)CO)C[C@@H]3O[C@H]1C[C@H](N)[C@H](O)[C@H](C)O1` [doxorubicin], the “Log2fc AC009014.3” value was 5.25, the “Log2fc AC010136.2” value was −3.13 and the “Log2fc ADCYAP1R1” value was 6.25. For the same molecule, the “Log2fc AL591893.1” value was 6.49, the “Log2fc BUB1B” value was −2.89 and the “Log2fc C11orf87” value was −3.03. For the same molecule, the “Log2fc CA7” value was 5.41, the “Log2fc CAV3” value was −3.53 and the “Log2fc CCDC60” value was 4.98. For the same molecule, the “Log2fc CCDC178” value was 5.45, the “Log2fc CENPA” value was −2.97 and the “Log2fc CENPE” value was −3.10. The “Log2fc CENPI” value was −3.23, the “Log2fc CHI3L2” value was 5.04 and the “Log2fc CLCA2” value was 5.42. For the same molecule, the “Log2fc CMB9.22P13.2” value was 4.99, the “Log2fc CRTAC1” value was 5.32 and the “Log2fc CSTA” value was 5.15. For the same molecule, the “Log2fc CTD.2083E4.7” value was −3.85, the “Log2fc CYP2J2” value was −2.82 and the “Log2fc DAND5” value was −4.17. The “Log2fc DIRAS2” value was −3.30, the “Log2fc DOK7” value was −3.42 and the “Log2fc DORAS1” value was −2.90. For the same molecule, the “Log2fc EN2” value was 4.93, the “Log2fc ETV7” value was 6.04 and the “Log2fc FABP5P3” value was 4.97. For the same molecule, the “Log2fc FAM196A” value was 6.36, the “Log2fc FBXL22” value was −2.80 and the “Log2fc FBXO40” value was −2.86. For the same molecule, the “Log2fc FOXD3” value was 5.31, the “Log2fc FUT1” value was −2.91 and the “Log2fc GCK” value was −3.14. For the same molecule, the “Log2fc GDNF” value was 5.54, the “Log2fc GPR87” value was 6.48 and the “Log2fc GRHL3” value was 5.45. The “Log2fc HIST1H2AG” value was 5.29, the “Log2fc HIST1H2AI” value was 5.70 and the “Log2fc HIST1H2BF” value was 6.22. For the same molecule, the “Log2fc HIST1H2BG” value was 4.94, the “Log2fc HIST1H3A” value was 5.14 and the “Log2fc HIST1H3H” value was 5.59. For the same molecule, the “Log2fc HIST1H3J” value was 5.16, the “Log2fc HIST1H4B” value was 5.29 and the “Log2fc HPR” value was −3.01. For the same molecule, the “Log2fc HRK” value was −3.01, the “Log2fc IGFL3” value was 5.18 and the “Log2fc INSM1” value was 4.97. The “Log2fc KCNK3” value was −3.07, the “Log2fc KCNK10” value was 6.80 and the “Log2fc KIF18B” value was −2.86. The “Log2fc LINC01164” value was 4.96, the “Log2fc LINC01224” value was −3.31 and the “Log2fc LINC01489” value was −3.45. The “Log2fc LRRC10” value was −3.05, the “Log2fc LRRC14B” value was −4.13 and the “Log2fc MIR145” value was −3.74. For the same molecule, the “Log2fc NEIL3” value was −2.89, the “Log2fc NFE2” value was −3.03 and the “Log2fc NHLH2” value was 7.10. The “Log2fc NKX1.2” value was 5.72, the “Log2fc NMUR1” value was −2.85 and the “Log2fc NOTO” value was 5.13. For the same molecule, the “Log2fc NPBWR1” value was 5.06, the “Log2fc NUF2” value was −2.87 and the “Log2fc PAX5” value was 6.11. The “Log2fc PEG13” value was −3.16, the “Log2fc POU3F1” value was 7.21 and the “Log2fc PRSS42” value was −2.89. The “Log2fc PRSS44” value was −3.02, the “Log2fc RP1.34B20.4” value was 5.94 and the “Log2fc RP1.46F2.3” value was −3.03. The “Log2fc RP3.326I13.1” value was 5.19, the “Log2fc RP3.412A9.12” value was −2.87 and the “Log2fc RP4.794I6.4” value was 5.33. For the same molecule, the “Log2fc RP5.1139B12.4” value was −3.80, the “Log2fc RP5.1148A21.3” value was 5.37 and the “Log2fc RP5.884C9.2” value was 5.53. The “Log2fc RP11.108M9.3” value was −4.12, the “Log2fc RP11.1149O23.2” value was 5.86 and the “Log2fc RP11.19O2.1” value was −3.69. For the same molecule, the “Log2fc RP11.234B24.2” value was −2.89, the “Log2fc RP11.529G21.2” value was 5.03 and the “Log2fc RP11.712B9.2” value was 5.10. For the same molecule, the “Log2fc RPL7P3” value was −3.03, the “Log2fc SEC14L5” value was −3.33 and the “Log2fc SLC4A11” value was 5.81. For the same molecule, the “Log2fc SLC5A1” value was −2.94, the “Log2fc TFAP2C” value was 4.93 and the “Log2fc TGFB111” value was −2.77. The “Log2fc TMEM72” value was −2.93, the “Log2fc TMEM88” value was −2.81 and the “Log2fc TMEM158” value was 5.19. For the same molecule, the “Log2fc TMEM229B” value was 4.99, the “Log2fc TNFRSF10A” value was 5.25 and the “Log2fc UTS2R” value was −3.09. The “Log2fc XIRP2” value was −2.88, the “Log2fc ZNF385C.1” value was −3.34 and the “genes associated with apoptosis, DNA damage, oxidative stress, and doxorubicin resistance” value (RNA-seq) was “significant upregulation”. The “genes associated with cardiac function” value (RNA-seq) was “downregulation”.
